From patent publication EP4631963A1, “PEPTIDE FOR CARTILAGE REGENERATION, AND USES THEREOF” (Caregen Co., Ltd., priority 2022, dated 2024)
Where a SMILES comes first, the peptide text is derived from it. Where no end group is shown, it is not given here.

System: C28/I2, human chondrocyte cell line
Assay: CCK-8 cytotoxicity assay
Format: cell-based
Conditions: C28/I2 cells, different concentrations, 3 days, 450 nm; FIG. 1, FIG. 2
Experimental: The cytotoxicity of Peptide-1 or Peptide-2 upon addition to human-derived chondrocytes (C28/I2, human chondrocyte cell line) was analyzed using a CCK-8 assay.
Specifically, human-derived chondrocytes were seeded in a 96-well plate at a density of 3 × 10^3 cells/well and cultured in DMEM medium (cat. 11995-065, Gibco) for 24 hours.

Row | Molecule | toxicity in human-derived chondrocytes (CCK-8 activity)
1 | CC(C)C[C@H](NC(=O)[C@@H](NC(=O)[C@@H](N)CCCNC(=N)N)[C@@H](C)O)C(=O)N[C@@H](CCC(=O)O)C(=O)O [Peptide-2, RTLE] (H-RTLE-OH) | did not exhibit toxicity
2 | HHEERY [Peptide-1, HHEERY] | did not exhibit toxicity
